Key:
[1] = molecular target: Val122Ile transthyretin (V122I-TTR) (Homo sapiens, UniProt P02766, V142I); assay: V122I-TTR amyloid fibril formation assay (turbidimetry, acid-induced); format: biochemical; conditions: pH 4.4, 72 hours; for Fibril Formation (%): V122I-TTR 3.6 μM, 37° C.
[2] = molecular target: T1, wild type transthyretin (WT-TTR) (Homo sapiens, UniProt P02766); assay: WT-TTR amyloid fibril formation assay (turbidimetry, acid-induced); format: biochemical; conditions: for Fibril Formation (%): WT-TTR 3.6 μM, 1:1 TTR-compound stoichiometry, 37° C., normalized to no-compound control (100%)
T1 construct: made in house; host or cells: E. coli BL21 (DE3), pET23a plasmid

Row | Fibril Formation (%) [1] [%] | IC50 ([1]; V122I-TTR fixed at 3.6 μM, ten compound concentrations) [nM] | inhibition of fibril formation ([2]; 1:2 compound-protein stoichiometry (0.5×), TTR 3.6 μM) | Fibril Formation (%) ([2]; pH 4.4, 72 hours) | IC50 ([2]; WT-TTR fixed at 3.6 μM, ten compound concentrations, pH 4.4, 72 hours) [nM] | SMILES | inhibitory activity against TTR amyloid fibril formation compared with reference compounds (in words) ([2]; TTR 3.6 μM, pH 4.4, 72 hours)
1 | 52 | 3730 | above 70% | 28 | 1770 ± 240 | COc1cc(/C=C2\SC(=S)N(CC(=O)O)C2=O)cc(Cl)c1O [AT50-A00 (Z), (Z)-3-hydroxycarbonylmethyl-5-(3′-chloro-4′-hydroxy-5′-methoxyphenylmethylidene)-2-thioxothiazolidin-4-one] | superior to that of reference compounds Tafamidis
2 | 49 | – | – | 43 | – | O=C(O)c1ccc2nc(-c3cc(Cl)cc(Cl)c3)oc2c1 [Tafamidis, reference compound] | –

Reference: patent US11584727B2, “2-thioxothiazolidin-4-one derivatives active as transthyretin ligands and uses thereof” (BSIM Therapeutics, S.A., priority 2014, dated 2023)
